Our source for the EC50 and Selectivity values is ChEMBL document CHEMBL1133247, “Synthesis of novel ferrocenyl sugars and their antimalarial activities” (Bioorg Med Chem Lett, 2000).

One test has as its system FM3A. The test can be described thus: In vitro cytotoxic activity against mouse mammary tumor FM3A cells. It is filed as functional, cell-based.
The next test has as its system Plasmodium falciparum. The test can be described thus: In vitro antimalarial activity against chloroquine-sensitive Plasmodium falciparum FCR3. It is filed as functional, organism-based.
Test [1] in a line: Selectivity is the ratio of mean EC50 value against […] cells to that of EC50 value against Plasmodium falciparum. It is filed as functional.

With `C=C[C@H]1CN2CC[C@H]1C[C@H]2[C@H](O)c1ccnc2ccc(OC)cc12` [QUININE], the EC50 – broadly, the concentration that produces a half-maximal response – in the test with FM3A worked out at 100 µM; with Plasmodium falciparum, 0.11 µM. The Selectivity in test [1] stood at 910.
